What was measured:
[1] = target: OXA-11 (Pseudomonas aeruginosa, UniProt Q06778)
[2] = target: AmpC (PAE) (Pseudomonas aeruginosa, UniProt P24735); assay: biochemical
[3] = tested on: E. coli UFR32; assay: MIC of ceftazidime (CAZ) at fixed concentration of compound (synergy), broth microdilution; format: cell-based; settings: strain UFR32 (E. coli)
Summary of the method: (§1)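 Log-phase bacteria were diluted to a final 5×10^5 cfu/mL in cation-adjusted Mueller-Hinton broth and incubated 16-20 h at 35° C in ambient air. MIC was taken as the lowest concentration preventing growth, judged visually.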

[4] = tested on: K. pneumoniae UFR77; assay: as above; format: cell-based; settings: strain UFR77 (K. pneumoniae)
Summary of the method: as §1

[5] = tested on: K. pneumoniae UFR68; assay: MIC of compound alone, broth microdilution; format: cell-based; settings: Klebsiella pneumoniae; strain UFR68: K. pneumoniae; TEM-1, SHV-11, CTX-M-15, KPC-3; read-out: MIC compounds of the invention alone
Summary of the method: as §1

[6] = tested on: E. cloacae UFR85; assay: MIC of compound alone, broth microdilution; format: cell-based; settings: Enterobacter cloacae; strain UFR85: E. cloacae; TEM-1, CTX-M-15, AmpC; read-out: MIC compounds of the invention alone
Summary of the method: as §1

[7] = tested on: E. coli 131119; assay: MIC of compound alone, broth microdilution; format: cell-based; settings: Escherichia coli; strain 131119: E. coli; TEM-1, OXA-48; read-out: MIC compounds of the invention alone
Summary of the method: as §1

[8] = tested on: K. oxytoca UFR21; assay: MIC of compound alone, broth microdilution; format: cell-based; settings: Klebsiella oxytoca; strain UFR21: K. oxytoca; TEM-1, CTX-M-15, OXA-48; read-out: MIC compounds of the invention alone
Summary of the method: as §1

[9] = tested on: E. coli UFR39; assay: MIC of compound alone, broth microdilution; format: cell-based; settings: Escherichia coli, UFR39, read-out: MIC compounds of the invention alone
Summary of the method: as §1

[10] = tested on: E. cloacae UFR70; assay: MIC of compound alone, broth microdilution; format: cell-based; settings: Enterobacter cloacae; strain UFR70: E. cloacae; TEM-1, CTX-M-15, CMY-2, OXA-1, Porin loss; read-out: MIC compounds of the invention alone
Summary of the method: as §1

[11] = tested on: E. cloacae P99; assay: MIC of compound alone, broth microdilution; format: cell-based; settings: Enterobacter cloacae; strain P99: E. cloacae; AmpC; read-out: MIC compounds of the invention alone
Summary of the method: as §1

[12] = tested on: P. aeruginosa CIP107051; assay: MIC of compound alone, broth microdilution; format: cell-based; settings: Pseudomonas aeruginosa; strain CIP107051: P. aeruginosa; TEM-24; read-out: MIC compounds of the invention alone
Summary of the method: as §1

[13] = tested on: E. coli 190317; assay: MIC of compound alone, broth microdilution; format: cell-based; settings: Escherichia coli; strain 190317: E. coli; TEM-1, SHV-12, CTX-M-15, OXA-1; read-out: MIC compounds of the invention alone
Summary of the method: as §1

[14] = tested on: E. coli UFR74; assay: MIC of compound alone, broth microdilution; format: cell-based; settings: Escherichia coli; strain UFR74: E. coli; SHV-1, DHA-1; read-out: MIC compounds of the invention alone
Summary of the method: as §1

[15] = tested on: E. coli UFR61O; assay: MIC of compound alone, broth microdilution; format: cell-based; settings: Escherichia coli; strain UFR61O: E. coli; TEM-1, KPC-2; read-out: MIC compounds of the invention alone
Summary of the method: as §1

[16] = tested on: E. cloacae UFR51; assay: MIC of compound alone, broth microdilution; format: cell-based; settings: Enterobacter cloacae; strain UFR51: E. cloacae; SHV-12, IMP-8; read-out: MIC compounds of the invention alone
Summary of the method: as §1

[17] = tested on: E. cloacae 260508; assay: MIC of compound alone, broth microdilution; format: cell-based; settings: Enterobacter cloacae; strain 260508: E. cloacae; TEM-1, CTX-M-15; read-out: MIC compounds of the invention alone
Summary of the method: as §1

[18] = tested on: K. pneumoniae 200047; assay: MIC of compound alone, broth microdilution; format: cell-based; settings: Klebsiella pneumoniae; strain 200047: K. pneumoniae; TEM-1, SHV-32, CTX-M-15, OXA-1; read-out: MIC compounds of the invention alone
Summary of the method: as §1

[19] = tested on: K. pneumoniae 6299; assay: MIC of compound alone, broth microdilution; format: cell-based; settings: Klebsiella pneumoniae; strain 6299: K. pneumoniae; TEM-1, SHV-11, OXA-163; read-out: MIC compounds of the invention alone
Summary of the method: as §1

[20] = tested on: K. pneumoniae BAA-1898; assay: MIC of compound alone, broth microdilution; format: cell-based; settings: Klebsiella pneumoniae, BAA1898; strain BAA-1898: K. pneumoniae; TEM-1, SHV-11, SHV-12, KPC-2; read-out: MIC compounds of the invention alone
Summary of the method: as §1

[21] = tested on: E. coli UFR32; assay: MIC of compound alone, broth microdilution; format: cell-based; settings: Escherichia coli; strain UFR32: E. coli; TEM-1, VEB-1, OXA-10; read-out: MIC compounds of the invention alone
Summary of the method: as §1

[22] = tested on: K. pneumoniae UFR24; assay: MIC of compound alone, broth microdilution; format: cell-based; settings: Klebsiella pneumoniae; strain UFR24: K. pneumoniae; TEM-1, SHV-2, SHV-11, OXA-1, OXA-48, OXA-47; read-out: MIC compounds of the invention alone
Summary of the method: as §1

[23] = tested on: E. coli UFR18; assay: MIC of compound alone, broth microdilution; format: cell-based; settings: Escherichia coli; strain UFR18: E. coli; CTX-M-15, OXA-204; read-out: MIC compounds of the invention alone
Summary of the method: as §1

[24] = tested on: E. coli UFR41; assay: MIC of compound alone, broth microdilution; format: cell-based; settings: Escherichia coli; strain UFR41: E. coli; TEM-1, CTX-M-15, CMY-2, OXA-1, NDM-4; read-out: MIC compounds of the invention alone
Summary of the method: as §1

[25] = tested on: K. pneumoniae UFR77; assay: MIC of compound alone, broth microdilution; format: cell-based; settings: Klebsiella pneumoniae; strain UFR77: K. pneumoniae; CMY-2; read-out: MIC compounds of the invention alone
Summary of the method: as §1

[26] = tested on: K. pneumoniae 160143; assay: MIC of compound alone, broth microdilution; format: cell-based; settings: Klebsiella pneumoniae; strain 160143: K. pneumoniae; TEM-1, SHV-1, CTX-M-15, KPC-2, OXA-1; read-out: MIC compounds of the invention alone
Summary of the method: as §1

[27] = footnote *: MIC of ceftazidime with compound fixed at 8 μg/mL
[28] = MIC of ceftazidime with compound fixed at 4 μg/mL

AmpC (PAE), sequence (P24735 27-397): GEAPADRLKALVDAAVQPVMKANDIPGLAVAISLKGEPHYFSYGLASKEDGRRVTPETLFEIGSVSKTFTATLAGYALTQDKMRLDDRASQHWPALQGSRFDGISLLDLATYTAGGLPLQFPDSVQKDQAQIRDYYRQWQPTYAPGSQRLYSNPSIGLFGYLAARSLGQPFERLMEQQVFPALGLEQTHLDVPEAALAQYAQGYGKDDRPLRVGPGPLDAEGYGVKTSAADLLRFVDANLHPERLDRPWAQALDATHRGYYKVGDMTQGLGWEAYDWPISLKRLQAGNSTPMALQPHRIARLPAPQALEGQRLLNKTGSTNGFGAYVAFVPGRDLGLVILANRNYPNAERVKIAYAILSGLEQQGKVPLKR
OXA-11, sequence (Q06778 21-266): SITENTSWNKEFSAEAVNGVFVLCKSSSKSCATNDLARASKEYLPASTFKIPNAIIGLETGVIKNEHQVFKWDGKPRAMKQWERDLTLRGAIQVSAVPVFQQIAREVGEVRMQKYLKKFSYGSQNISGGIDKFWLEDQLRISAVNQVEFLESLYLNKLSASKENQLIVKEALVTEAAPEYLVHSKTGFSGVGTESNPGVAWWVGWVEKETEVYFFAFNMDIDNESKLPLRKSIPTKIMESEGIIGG

SMILES | IC50 [1] [nM] | IC50 [2] [nM] | MIC [5] [µg/mL] | MIC [6] [µg/mL] | MIC [7] [µg/mL] | MIC [8] [µg/mL] | MIC [9] [µg/mL] | MIC [10] [µg/mL] | MIC [11] [µg/mL] | MIC [12] [µg/mL] | MIC [13] [µg/mL] | MIC [14] [µg/mL] | MIC [15] [µg/mL] | MIC [16] [µg/mL] | MIC [17] [µg/mL] | MIC [18] [µg/mL] | MIC [19] [µg/mL] | MIC [20] [µg/mL] | MIC [21] [µg/mL] | MIC [22] [µg/mL] | further results
O=C1N2CC(n3cncn3)=CC(C2)N1OS(=O)(=O)[O-].[Na+] (stereo not shown) [Example 5, sodium [7-oxo-3-(1,2,4-triazol-1-yl)-1,6-diazabicyclo[3.2.1]oct-3-en-6-yl]sulfate] | 14 | 140 | 4 | 4 | 2 | 4 | 2 | 2 | 4 | > 32 | 1 | 4 | 8 | 4 | 4 | 2 | 4 | 4 | 2 | 2 | MIC combination of CAZ and compound at 8 μg/mL [3, 27]: <0.25; MIC combination of CAZ and compound at 8 μg/mL [4, 27]: <0.25; MIC [23]: 2 µg/mL; MIC [24]: 4 µg/mL; MIC [25]: 4 µg/mL; MIC [26]: 2 µg/mL
O=C1N2CC(n3ccsc3=O)=CC(C2)N1OS(=O)(=O)[O-].[Na+] (stereo not shown) [Example 1, Sodium [7-oxo-3-(2-oxo-thiazol-3-yl)-1,6-diaza-bicyclo[3.2.1]oct-3-en-6-yl]sulfate] | 92 | 120 | 8 | 4 | 2 | 8 | 2 | 4 | 4 | > 32 | 2 | 16 | 16 | 4 | 4 | 8 | 32 | 8 | 4 | 16 | MIC combination of CAZ and compounds of the invention at 4 μg/mL [3, 28]: <0.25; MIC combination of CAZ and compounds of the invention at 4 μg/mL [4, 28]: ≤0.25; MIC [23]: 2 µg/mL; MIC [24]: 4 µg/mL; MIC [25]: 8 µg/mL; MIC [26]: 4 µg/mL

From US10722520B2, “Heterocyclic compounds and their use in preventing or treating bacterial infections” (MUTABILIS, priority 2016, dated 2020)
